Data taken from patent publication US20210163489A1, “PYRAZOLOPYRIMIDINE DERIVATIVES AND THE COMPOSITIONS AND METHODS OF TREATMENT REGARDING THE SAME” (NysnoBio Ireland DAC, priority 2016, published 2021).

Test system: S-HeLa stably expressing a YFP-Parkin fusion protein
Test: Cell rating experiments: Parkin-dependent induction of mitophagy (Tomm20 immunofluorescence)
Format: cell-based
Set-up: key to Cell Ratings [Example 4] (cell activity): +++: >70% effect at 10 μM; ++: 69%-31% effect at 10 μM; +: <30% effect at 10 μM; −: negative at 10 μM
Conditions: 20 h, Tomm20 negative cells, 6 μM CCCP, compound at 10 μM, read-out: Cell Ratings [Example 4] (cell activity)
Procedure: Compounds: All compounds were dissolved in DMSO to a concentration of 25 mM and stored at −20° C. Compound 1 is N,N′-(1-phenyl-1H-1,2,4-triazole-3,5-diyl)dibenzamide.
Cell Culture: S-HeLa stably expressing a YFP-Parkin fusion protein (kindly donated by Prof. Richard J. Youle, Porter Neuroscience Research Center, Bethesda, Md., USA) were utilised to assess Parkin-dependent induction of mitophagy. 4000 cells were seeded in each well of a 96 well plate (Parkin Elmer ViewPlate-96 F TC, cat. N. 6005182) and left to grow for 24 hours.
Subsequently cells were incubated with vehicle (DMSO) or 6 μM CCCP for 1 hour prior to adding increasing concentrations of compound (1, 2.5, 5, 10 μM), each condition run in replicate of five. After 20 hours cells were processed for immunofluorescence.
Immunofluorescence: Samples were fixed in 4% PFA for 25 minutes RT and permeabilized with PBS 0.1% Triton-X100 for 3 minutes on ice, blocked with PBS 3% BSA, 0.3% Triton-X100 for 2 hours RT, followed by overnight incubation with primary antibody at 4° C. ([…] rabbit Tomm20 antibody FL-145; Santa Cruz Biotechnology) diluted in PBS 0.1% BSA, 0.3% Triton-X100. The secondary goat anti-rabbit antibody conjugated with DyLight 649 (Jackson ImmunoResearch) was applied for 1 hour at room temperature at a concentration of […] in conjunction with […] Hoechst33342.
Cells were imaged using an Olympus ScanR automated microscope equipped with motorised stage and 20x APO planar objective. 18 images were acquired for each well using the following combination of excitation/emission filters: Hoechst33342 was excited through a 350/50 nm band pass filter and fluorescence intensity was collected through a 460/30 band pass filter. YFP was excited through a 500/20 nm band pass filter and fluorescence intensity was collected through a 540/35 band pass filter. DyLight 649 was excited through a 640/30 nm band pass filter and fluorescence intensity was collected through 700/75 band pass filter. Images were processed and analysed as described in the Image Analysis section.
Image analysis: Images were processed and analysed using Columbus HCS Analysis software (Version 2.5.0., PerkinElmer) as follows:
Tomm20 fluorescence intensity was corrected using the parabola algorithm. Hoechst 33342 fluorescence was used to identify and count cells. Cells were segmented according to Tomm20 fluorescence intensity. Spot detection was optimized to recognize number and total cellular area of Tomm20 stained clusters (mitochondria).
Tomm20 staining intensity, spot numbers and spot area were used to train a linear classifier algorithm that discriminated between Tomm20 positive (high intensity, spot numbers and spot area) and Tomm20 negative cells (low intensity, spot numbers and spot area).
Bar graphs were generated reporting the number of Tomm20 negative cells expressed as percentage of total cells imaged for each well (FIGS. 3 and 6). Results were shown as mean ±SD of a representative experiment performed in triplicate. +++ indicates >70% effect at 10 μM; ++ indicates 69%-31% effect at 10 μM; + indicates <30% effect at 10 μM; − indicates negative at 10 μM; NA=not available.

Row | Structure (SMILES) | activation at 10 µM [%]
1 | Cc1cc2nc(C)c(Cc3ccc(Cl)cc3)c(S)n2n1 [Compound R, 6-[(4-chlorophenyl)methyl]-2,5-dimethyl-pyrazolo[1,5-a]pyrimidine-7-thiol] | < 30
2 | Cc1nn2c(S)c(Cc3ccccc3)cnc2c1-c1ccccc1 [Compound DD, 6-benzyl-2-methyl-3-phenyl-pyrazolo[1,5-a]pyrimidin-7-thiol] | 31 to 69
3 | Cc1nc2c(-c3ccccc3)c(C)nn2c(O)c1Cc1ccccc1 [T] | < 30
4 | Cc1nn2c(S)c3c(nc2c1-c1ccccc1)CCCC3 [Compound K] | 31 to 69
5 | Cc1nc2c(-c3ccccc3)cnn2c(O)c1Cc1ccccc1 [Compound U, 6-benzyl-5-methyl-3-phenyl-pyrazolo[1,5-a]pyrimidin-7-ol] | 31 to 69
6 | Cc1nc2c(C(F)(F)F)c(C)nn2c(S)c1Cc1ccccc1 [LL] | 31 to 69
7 | Cc1nn2c(O)cc(C(C)(C)C)nc2c1-c1ccc(Cl)cc1 [F] | 31 to 69
8 | Cc1cc(S)n2ncc(-c3ccccc3)c2n1 [Compound C] | 31 to 69
9 | Cc1nc2c(-c3ccccc3)c(C)nn2c(S)c1Cc1ccncc1 [Compound AA, 2,5-dimethyl-3-phenyl-6-(4-pyridylmethyl)pyrazolo[1,5-a]pyrimidine-7-thiol] | > 70
10 | CCc1nn2c(S)cc(C)nc2c1-c1ccc(F)cc1 [Compound I] | 31 to 69
11 | Cc1cc(S)n2ncc(-c3ccc(F)cc3)c2n1 [Compound L, 3-(4-fluorophenyl)-5-methylpyrazolo[1,5-a]pyrimidine-7-thiol] | > 70
12 | COc1ccccc1-c1c(C)nn2c(S)cc(C)nc12 [Compound D] | < 30
13 | Cc1cc2nc(C)c(Cc3ccccc3)c(S)n2n1 [S] | < 30
14 | Cc1cc(C)c2c(n1)nn1c(S)cc(C)nc21 [Compound E] | > 70
15 | Cc1nc2c(-c3ccccc3)cnn2c(S)c1Cc1ccccc1 [Compound CC, 6-benzyl-5-methyl-3-phenyl-pyrazolo[1,5-a]pyrimidin-7-thiol] | > 70
16 | Cc1cc2nc(C)c(Cc3ccc(Cl)cc3)c(O)n2n1 [Compound P, 6-[(4-chlorophenyl)methyl]-2,5-dimethyl-pyrazolo[1,5-a]pyrimidin-7-ol] | < 30
17 | CC(C)(C)c1cc(O)n2ncc(-c3ccccc3)c2n1 [J] | 31 to 69
18 | Cc1nc2c(-c3ccccn3)c(C)nn2c(O)c1Cc1ccccc1 [FF] | < 30
19 | Sc1c(Cc2ccccc2)cnc2c(-c3ccccc3)cnn12 [Compound Z, 6-benzyl-3-phenyl-pyrazolo[1,5-a]pyrimidin-7-thiol] | 31 to 69

Same assay, conditions: Tomm20 negative cells, 6 μM CCCP, compound at 10 μM, 20 hours

Row | Structure (SMILES) | Cell Ratings [Example 4] (cell activity)
20 | Cc1nc2c(-c3ccccc3)c(C)nn2c(S)c1Cc1ccccn1 [Compound BB, 2,5-dimethyl-3-phenyl-6-(2-pyridylmethyl)pyrazolo[1,5-a]pyrimidine-7-thiol] | −
21 | Cc1nc2c(-c3ccncc3)c(C)nn2c(S)c1Cc1ccccc1 [MM] | −

Test system: not listed separately
Test: Metabolic stability in human liver microsomes (HLM)
Format: in vitro ADME
Conditions: pH 7.4, 1 μM compound, 1.0 mg/mL microsome, NADPH, read-out: HLM t1/2
Procedure: Compounds were also tested for metabolic stability in both rat liver microsomes (RLM) and human liver microsomes (HLM) and their half-life calculated (See Table 6). The assay was performed as follows. The total volume for each incubation was 250 μL. A 100 μM DMSO solution of compound (diluted from 10 mM stock solution) was spiked into 50 mM KH2PO4 (pH 7.4) buffer containing liver microsome at a concentration of 1.0 mg/mL. The reaction was initiated by the addition of 50 μL of 1 mM NADPH. The final concentration of each compound was 1 μM (1% DMSO). The positive controls, phenacetin for CYP1A2, diclofenac for CYP2C9, omeprazole for CYP2C19, dextromethorphan for CYP2D6 and midazolam for CYP3A4 were added to a separate tube with the final substrate concentrations of 1 μM (1% DMSO) for evaluating the enzyme activities in the liver microsomes. At 0, 15, 30 and 60 min, an aliquot of 15 μL reaction mixtures were removed and 200 μL of methanol (with internal standard of 25 ng/mL propranolol) was added to quench the reaction. The resulting mixture was centrifuged and supernatant was used for LC-MS/MS analysis.
The signals for each compound, or the metabolites for the probe substrates and the internal standard were integrated and the peak area ratios to internal standard were generated. Percent parent remaining at a specified timepoint was calculated based on the peak area ratios at time 0 (as 100%) for in vitro metabolic stability studies in liver microsome and hepatocyte. The observed rate constant (kobs) for the metabolism of substrates was calculated by plotting the natural log of percentage substrate remaining versus time of incubation with the slope being kobs. The half-life (T1/2) was calculated according to the following equation: […]

Row | half-life at 1 μM [min] | Structure (SMILES)
22 | 11.8 | Cc1ccc(-c2cnn3c(S)cc(C)nc23)cc1 [TT]
23 | 44.4 | COc1ccc(-c2cnn3c(S)cc(C)nc23)cc1 [SS]
24 | 65.4 | Cc1nc2c(-c3ccccc3)c(C)nn2c(S)c1Cc1ccncc1 [Compound AA, 2,5-dimethyl-3-phenyl-6-(4-pyridylmethyl)pyrazolo[1,5-a]pyrimidine-7-thiol]
25 | 154 | Cc1nn2c(S)c3c(nc2c1-c1ccccc1)CN(C)CC3 [Compound C3]
26 | 161 | Cc1cc(S)n2ncc(-c3ccc(F)cc3)c2n1 [Compound L, 3-(4-fluorophenyl)-5-methylpyrazolo[1,5-a]pyrimidine-7-thiol]
27 | 63 | Cc1nc2c(-c3ccccc3)c(C)nn2c(S)c1Cc1ccccc1 [Compound A, 6-benzyl-2,5-dimethyl-3-phenylpyrazolo[1,5-a]pyrimidine-7-thiol]
28 | 173 | Cc1cc(C)c2c(n1)nn1c(S)cc(C)nc21 [Compound E]
29 | 22.9 | Cc1nc2c(-c3ccccc3)cnn2c(S)c1Cc1ccccc1 [Compound CC, 6-benzyl-5-methyl-3-phenyl-pyrazolo[1,5-a]pyrimidin-7-thiol]
30 | 33 | Cc1cc(S)n2ncc(-c3cccc(N(C)C)c3)c2n1 [UU]
